Where “and” joins values, the source holds several entries; their conditions need not be identical. Identical values can stand only once. Residues, ends and D or L forms follow the SMILES beside them. *: point of attachment. pNA = O=[N+]([O-])c1ccc(N*)cc1; Boc = CC(C)(C)OC(=O)*
Molecular target: Nonstructural protein 3 (Zika virus, UniProt A0A024AXB9)
Assay: Functional biochemical assay to identify treatments for viral infectious disease that targets Zika NS2B-NS3 protease. Utilizing a direct enzyme activity measurement method, reading the fluorescence intensity is used to characterize the relative potency of inhibitors as IC50.
Parameters: species or system PRVABC59

Chain of Nonstructural protein 3 (A0A024AXB9 whole entry): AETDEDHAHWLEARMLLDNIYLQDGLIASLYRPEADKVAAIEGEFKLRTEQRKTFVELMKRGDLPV

Structure (SMILES) | IC50
O=c1ccccn1-c1ncc(Br)cn1 | > 99.5 µM
NC1(c2ccccc2NS(=O)(=O)c2ccc(Oc3ccccc3Cl)cc2)CC1 | > 99.5 µM
CCc1ncc(Cl)cc1C(=O)Nc1ccc2c(c1)CNC2 | 1.6 µM
O=C(Nc1cccc(-n2nn[nH]c2=O)c1)c1cc(Cl)cc(N2CCCC2=O)c1 | > 99.5 µM
Cn1nc2c(c1NC(=O)c1cc(Cl)cc(NC(=O)OCc3ccccc3)c1)CNCC2 | 21.9 µM
O=C(Nc1ccc2c(c1)CNC2)c1cc(Cl)cc2nn(C3COC3)cc12 | 0.539 µM
COc1ccc(NS(=O)(=O)c2ccc(Cl)cc2C(=O)O)cc1-n1nnnc1C | > 99.5 µM
O=C1Cc2c(cccc2C(=O)N[C@H]2CCSC3(CCOCC3)C2)N1 | > 25 µM
NC(=O)c1cccc(NC(=O)[C@@H](NC(=O)c2ccc(Oc3ccc(C(F)(F)F)cc3)cc2)c2ccc(OCc3ccccc3)cc2)c1 | > 99.5 µM
C[C@H]1Oc2c(cccc2C(=O)Nc2ccc3c(c2)CNC3)NC1=O | 1.13 µM
Cc1cc(C(=O)Nc2cccc(CN)c2)n2nc(C(F)(F)F)cc2n1 | > 99.5 µM
CC1([C@H]2CCCN(C(=O)Nc3ccc4c(c3)CNC4)C2)CC1 | > 25 µM
COC(=O)c1ccc2[nH]cc(Cc3ccc(-c4nnn[nH]4)cc3)c2c1 | > 99.5 µM
C=CC[C@H](Nc1cccc(-c2nn[nH]n2)c1)c1cc(Cl)cc2[nH]ncc12 | > 99.5 µM
O=C(O)C[C@H]1NCc2cc(NC(=O)c3cc(Cl)cc4[nH]ncc34)ccc21 | 0.952 µM
Cc1cc(-c2ccc3[nH]c(C(=O)O)cc3c2)c(=O)n(Cc2ccccc2)c1 | > 99.5 µM
O=C(O)Cc1c[nH]c2cc(-c3cc(Cl)cc(NC(=O)OCc4ccccc4)c3)ccc12 | > 99.5 µM
COc1nnc(C(F)(F)F)cc1-c1ccc2[nH]c(C(=O)O)cc2c1 | > 99.5 µM
Cc1c(CN)cccc1NS(=O)(=O)c1ccc(Oc2ccccc2Cl)cc1 | > 99.5 µM
O=C(Nc1cc(-c2cccnc2)ccn1)c1cccc(C2CC2)c1 | > 25 µM
NCc1cccc(NC(=O)[C@@H](NC(=O)OCc2ccccc2)C2CCN(C(=O)c3cscn3)CC2)c1 | > 99.5 µM
NC(=O)c1ccc(Cn2nnc(C=Cc3ccccc3)n2)cc1 | > 99.5 µM
O=C(NCC(F)F)[C@H](Nc1ccc2c(c1)CNC2)c1cc(Cl)cc(Cl)c1Cl | 0.069 µM and 0.065 µM
CN1CCN(C2CN(C(=O)c3cc(Br)cc(C=O)c3)C2)CC1 | > 99.5 µM
NCc1cccc(NC(=O)c2cc(Cl)cc3c2OCCNC3)c1 | 45.2 µM
c1ccc2c(CNCc3ccc(-c4cscn4)cc3)c[nH]c2c1 | 81 µM

Structure (SMILES) | IC50
C[C@@H](N)c1cccc(NC(=O)c2cc(Cl)cc(NC(=O)OCc3ccccc3)c2)c1 | 22.7 µM
NCc1cc(C(=O)N2CCNC(=O)C2)cc([C@@H]2C[C@H]2c2cc(Cl)cc(NC(=O)OCc3ccccc3)c2)c1 | 14.6 µM
O=C(Nc1cc(-c2cccnc2)ccn1)c1cc2n(n1)CCO2 | > 25 µM
O=C(Nc1cccc(-c2nnn[nH]2)c1)c1cc(Cl)cc2[nH]ncc12 | > 99.5 µM
O=C(Nc1ccc([C@H]2CCNC2)cc1)c1cc(Cl)cc2[nH]ncc12 | 2.51 µM
CC(C)[C@H]1C(=O)O[C@@H]1C(=O)O | > 99.5 µM
O=C(Nc1ccc2c(c1)CNC2)c1cc(Cl)cc2[nH]c(-c3ccnn3C3CC3)nc12 | 0.1 µM and 0.076 µM
CNC(=O)[C@H](Nc1ccc2c(c1)CNC2)c1cc(Cl)cc2[nH]c(-c3ccccc3)nc12 | 0.029 µM and 0.013 µM
OC[C@H]1CCN(c2cncc(N3CCOCC3)n2)C1 | > 99.5 µM
Fc1cc(CNc2ccc3c(c2)CNC3)c2cn[nH]c2c1 | 3.51 µM
N#C[C@H](Nc1ccc2c(c1)CNC2)c1ccnc(C(F)(F)F)c1 | > 25 µM
N#C[C@H](Nc1ccc2c(c1)CNC2)c1cccc2c1CCNC2=O | 22.4 µM
O=C1Cc2cc(NC(=O)c3cc(Cl)cc4[nH]ncc34)ccc2N1 | > 99.5 µM
O=C(Nc1cc(Cl)cc(C(=O)N[C@H](c2nn[nH]n2)C2CNC2)c1)OCc1ccccc1 | > 99.5 µM
Cc1c(C(=O)Nc2cc(C(=O)Nc3cccnc3)ccn2)cc(C2CC2)n1C | > 25 µM
NCc1ccc(NS(=O)(=O)c2ccc(Oc3ccccc3Cl)cc2)cc1 | > 99.5 µM
O=C(O)c1nc(Cc2c[nH]c3ccc(Cl)cc23)c2ccccn12 | > 99.5 µM
O=C(Nc1cc(Cl)cc(-c2cnn3ccc(C(=O)O)cc23)c1)OCc1ccccc1 | > 99.5 µM
O=c1c2cccn2cnn1Cc1cnc(Cl)s1 | > 99.5 µM
O=C(Nc1cc(Cl)cc(/C=C/c2cccc(-n3nn[nH]c3=O)c2)c1)OCc1ccccc1 | > 99.5 µM
O=Cc1ccc(N2CCC(C(=O)NC[C@@H]3CCCN4CCCC[C@H]34)CC2)cc1 | > 0.782 µM
CC[C@H]1CCN(c2nccn(CC)c2=O)C1 | > 99.5 µM
O=C(NCC1CC1)[C@H]1CCCC[C@H]1NS(=O)(=O)c1ccc(Oc2ccccc2Cl)cc1 | > 99.5 µM
CNC(=O)[C@]1(Nc2ccc3c(c2)CNC3)CCc2ccc(Cl)cc21 | 34.6 µM
Clc1ccc2c(CN3CCC(c4c[nH]c5ncccc45)CC3)c[nH]c2c1 | 24.9 µM
CC(C)(C#N)c1cc(C(=O)Nc2cccc(CN)c2)cc(C(F)(F)F)c1 | > 99.5 µM

Structure (SMILES) | IC50
COC(=O)[C@]12CC[C@](C(=O)Nc3cccc(CN)c3)(COC1)C2 | > 99.5 µM
c1cc(Cc2noc(CCc3cscn3)n2)no1 | > 99.5 µM
N[C@H]1CCN(c2ccc(NC(=O)c3cc(Cl)cc(NC(=O)OCc4ccccc4)c3)cc2)C1 | 7.72 µM
O=C(C(=O)N1CCOCC1)c1c[nH]c2ccccc12 | > 99.5 µM
Cc1cccc(-c2nc3c(C(=O)Nc4ccc5c(c4)CNC5)cc(F)cc3[nH]2)c1 | 0.112 µM and 0.159 µM
Cc1cc(C)n([C@H]2CCCN(C(=O)Nc3ccc4c(c3)CNC4)C2)n1 | > 25 µM
Cn1ccc(-c2cc(CN)cc([C@@H]3C[C@H]3c3cc(Cl)cc(NC(=O)OCc4ccccc4)c3)c2)n1 | 8.05 µM
Cc1c[nH]nc1CN1CCC(c2cscn2)CC1 | > 99.5 µM
CC(=O)Nc1cccc(C(=O)Nc2ccc3c(c2)CNC3)n1 | > 25 µM
COc1cccc(-c2ccc([C@@H](NC(=O)OCc3ccccc3)C(=O)Nc3cccc(CN)c3)cc2)c1 | 7.03 µM and 8.01 µM
O=C(NCC(F)F)[C@H](Nc1ccc2c(c1)CNC2)c1cc(Cl)ccc1Sc1ccccc1 | 0.494 µM
NCc1cccc(NC(=O)c2cc(C(F)(F)F)ccc2SC2CCCC2)c1 | 84.3 µM
O=C(Nc1cc(Cl)cc([C@H]2C[C@@H]2c2cccc(C3CCNCC3)c2)c1)OCc1ccccc1 | 2.64 µM
O=C(Nc1cc(Cl)cc(C(=O)Nc2ccc(C3CNC3)cc2)c1)OCc1ccccc1 | 5.99 µM
O=C(Nc1cc(Cl)cc(C(=O)Nc2n[nH]c3c2CNC32CC2)c1)OCc1ccccc1 | > 99.5 µM
COc1ncccc1S(=O)(=O)N[C@H](C(=O)Nc1cccc(CN)c1)c1ccc(OCc2ccccc2)cc1 | > 99.5 µM
NCc1ccncc1NS(=O)(=O)c1ccc(Oc2ccccc2Cl)cc1 | 94.2 µM
Cc1cc(Cl)c(C)c(C(=O)O)c1NS(=O)(=O)c1ccc(Oc2ccccc2Cl)cc1 | 93.8 µM
O=C(Nc1cc(Cl)cc(C(=O)Nc2ccc([C@H]3CCCNC3)cc2)c1)OCc1ccccc1 | 7.51 µM
O=C(N[C@@H](C(=O)NCc1ccccn1)c1ccc(OCc2ccccc2)cc1)OCc1ccccc1 | > 99.5 µM
Cc1c(C(=O)Nc2cc(CN)ccc2F)cc(C2CC2)n1C | > 99.5 µM
CNC(=O)C[C@H]1CC[C@@H](NC(=O)c2cccc3c2CC(=O)N3)CC1 | > 25 µM
O=C1Cc2c(cccc2C(=O)N[C@H]2C[C@H](Cn3ccnc3)C2)N1 | > 25 µM
NCc1cccc(NC(=O)[C@@H]2[C@@H]3CCCCC[C@@H]3[C@@H]2NC(=O)OCc2ccccc2)c1 | 54.7 µM
O=C(NC[C@H]1CCCO1)c1cc(Cl)ccc1NS(=O)(=O)c1ccc(Oc2ccccc2Cl)cc1 | > 99.5 µM
CCNCc1ccc(NC(=O)c2cc(Cl)cc3[nH]ncc23)cc1 | 11.5 µM

Structure (SMILES) | IC50
CCOc1cccc(-c2ccc(NS(=O)(=O)c3cc(F)c(Cl)cc3C(=O)O)cc2)c1 | 21.8 µM
Cn1ccnc1C(=O)N1CCC([C@H](NC(=O)OCc2ccccc2)C(=O)Nc2cccc(CN)c2)CC1 | > 99.5 µM
CN1CCC[C@H]1COc1cccc([C@@H](NC(=O)OCc2ccccc2)C(=O)Nc2cccc(CN)c2)c1 | > 99.5 µM
C[S@@+]([O-])c1nncn1Cc1ccc(Cl)s1 | > 99.5 µM
Cc1c(C(=O)Nc2cccc(-c3nnn[nH]3)c2)cnn1-c1ccc(Cl)cc1 | > 99.5 µM
C=CC[C@H](Nc1cc(Cl)cc(NC(=O)OCc2ccccc2)c1)c1cccc(CN)c1 | 7.69 µM
Cn1ncc2c(C(=O)Nc3ccc4c(c3)CNC4)cc(Br)cc21 | 0.274 µM
Cn1nc(C2CC2)c2c(C(=O)Nc3cccc(CN)c3)cc(C3CC3)nc21 | > 99.5 µM
O=C(c1cccnc1)N1CCN(Cc2c[nH]c3ccccc23)CC1 | > 99.5 µM
NCc1cccc(CNC(=O)[C@H](NC(=O)OCc2ccccc2)c2ccc(OCc3ccccc3)cc2)c1 | 13.1 µM
NCc1cccc(NC(=O)[C@H](NC(=O)OCc2ccccc2)c2ccc(OCC3CCC3)cc2)c1 | 28.5 µM
NCc1cccc(NC(=O)[C@H](NC(=O)OCc2ccccc2)c2ccc(OCCc3cscn3)cc2)c1 | 79.5 µM
NCc1cccc(NC(=O)[C@H](NS(=O)(=O)c2ccc(Oc3ccccc3Cl)cc2)c2ccc(OCc3ccccc3)cc2)c1 | 65.4 µM
O=C(Cn1ccnc(N2CC[C@H](CO)C2)c1=O)NCc1nccs1 | > 99.5 µM
CCn1c(=O)c(N2CC(S(=O)(=O)N3CCCC3)C2)nc2ccccc21 | > 99.5 µM
O=C(Nc1cc(Cl)cc(C(=O)N[C@H]2CCCC[C@@H]2C(=O)O)c1)OCc1ccccc1 | > 99.5 µM
NCc1cccc(NC(=O)[C@@H](NC(=O)OCc2ccccc2)c2ccc(OCc3ccccn3)cc2)c1 | > 99.5 µM
Cn1nc(C(=O)Nc2cc([C@H]3CCOC3)ccn2)cc1C1CC1 | > 25 µM
O=C(Nc1ccc2c(c1)CNC2)N1C[C@H](C(F)F)C2(CC2)C1 | 24.6 µM
CSCC[C@H](NC(=O)OC(C)(C)C)C(=O)N1CCC[C@H]1C(=O)Nc1ccc([N+](=O)[O-])cc1 (Boc-Met-Pro-pNA) | > 99.5 µM
Cc1c[nH]c2ncnc(C(=O)Nc3ccc4c(c3)CNC4)c12 | > 25 µM
C=CC[C@H](Nc1cccc(-c2nn[nH]n2)c1)c1cc(Cl)cc(NC(=O)OCc2ccccc2)c1 | 9.32 µM
Cc1nc2ccc(C(=O)Nc3ccc4c(c3)CNC4)cc2s1 | > 25 µM
NCc1cccc(NC(=O)c2cc(NC(=O)OCc3ccccc3)c(=O)n3c2CCCC3)c1 | > 99.5 µM
O=C1Cc2c(cccc2C(=O)N[C@H]2COc3cc(Br)cnc32)N1 | > 25 µM

From ChEMBL document CHEMBL5604062, “ASAP - ZIKV NS2B-NS3 protease fluorescence dose response” (2024)
